# According to article PMC6424957 (Scientific Reports, 2019):
# Columns and labels:
# [1] = target: T1, Electrophorus electricus AChE (EeAChE) (Electrophorus electricus, UniProt O42275); test: biochemical; format: biochemical
# T1 construct: from human erythrocyte and E. electricus (EeAChE) (type VI-S); purchased Sigma-Aldrich (Germany) type VI-S; host or cells: Electrophorus electricus tissue
# Procedure: (§1) Acetylcholinesterase (AChE, EC 3.1.1.7, from human erythrocyte and E. electricus (EeAChE) (type VI-S), butyrylcholinesterase (BChE, EC 3.1.1.8, from equine serum), carboxylesterase (CaE, EC 3.1.1.1, from porcine liver), acetylthiocholine iodide (ATCh), butylthiocholine iodide (BTCh), 5,5′-dithiobis-(2-nitrobenzoic acid) (DTNB), 4-nitrophenyl acetate (4-NPA), were purchased from Sigma-Aldrich (Germany).
# (§2) AChE and BChE activities were measured by the Ellman method as described earlier. The assay solution consisted of 0.1 M K/Na phosphate buffer pH 7.5, 25 °C with the addition of 0.33 mM DTNB, 0.02 unit/mL of AChE or BChE, and 1 mM of substrate (ATCh or BTCh, respectively). The assays were carried out with a reagent blank containing all components except AChE or BChE to account for non-enzymatic hydrolysis of substrate. In addition, an enzyme blank was included that contained all components except substrate to account for non-substrate sulfhydryl groups. […] The assay solution consisted of 0.1 M K/Na phosphate buffer pH 8.0, 25 °C with the addition of 1 mM 4-nitrophenyl acetate and 0.02 unit/mL of CaE. Assays were carried out with a blank containing all components except CaE.
# (§3) The test compounds were dissolved in DMSO; the incubation mixture contained 2% (v/v) of the solvent. […] The test compounds were added to the assay solution and preincubated at 25°C with the enzymes for 5 min followed by the addition of substrate. A parallel control was made for the assay solution with no inhibitor. […] Each experiment was performed three times. The results were expressed as the mean ± SEM. The reaction rates in the presence and absence of inhibitor were compared, and the percent of residual enzyme activity due to the presence of test compounds was calculated.
# [2] = target: T2, equine serum butyrylcholinesterase (BChE) (Equus caballus, UniProt P81908); test: biochemical; format: biochemical; conditions: mean ± SEM, n ≥ 3
# T2 construct: butyrylcholinesterase (BChE, EC 3.1.1.8, from equine serum); purchased Sigma-Aldrich (Germany); host or cells: equine serum
# Procedure: as §1, §2, §3
# [3] = target: T3, human erythrocyte acetylcholinesterase (AChE) (Homo sapiens, UniProt P22303); test: biochemical; format: biochemical; conditions: mean ± SEM, n ≥ 3
# T3 construct: Acetylcholinesterase (AChE, EC 3.1.1.7, from human erythrocyte); purchased Sigma-Aldrich (Germany); host or cells: human erythrocytes
# Procedure: as §1, §2, §3
# [4] = target: T4, porcine liver carboxylesterase (CaE) (Sus scrofa, UniProt Q29550); test: CaE inhibition (4-nitrophenyl acetate hydrolysis); format: biochemical; conditions: 20 µM, mean ± SEM, n ≥ 3, n.a. = not active at 20 µM
# T4 sequence (Q29550 19-566): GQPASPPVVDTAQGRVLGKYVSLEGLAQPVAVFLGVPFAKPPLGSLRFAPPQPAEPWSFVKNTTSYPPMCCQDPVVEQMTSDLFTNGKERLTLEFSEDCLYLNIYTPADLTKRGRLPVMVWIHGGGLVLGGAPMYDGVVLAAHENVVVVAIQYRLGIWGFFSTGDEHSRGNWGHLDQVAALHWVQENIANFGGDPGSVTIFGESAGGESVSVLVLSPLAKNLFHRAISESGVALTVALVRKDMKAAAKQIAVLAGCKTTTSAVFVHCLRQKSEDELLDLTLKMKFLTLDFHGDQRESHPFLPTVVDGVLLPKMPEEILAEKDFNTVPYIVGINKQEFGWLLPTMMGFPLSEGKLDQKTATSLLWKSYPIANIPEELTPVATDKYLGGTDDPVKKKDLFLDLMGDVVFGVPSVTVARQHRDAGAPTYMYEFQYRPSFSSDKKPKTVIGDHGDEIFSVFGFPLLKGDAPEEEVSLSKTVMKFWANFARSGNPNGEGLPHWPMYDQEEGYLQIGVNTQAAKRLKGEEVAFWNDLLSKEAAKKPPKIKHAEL
# Procedure: as §1, §2, §3
# [5] = target: T5, peripheral anionic site (PAS) of EeAChE (Electrophorus electricus, UniProt O42275); format: binding; conditions: EeAChE 7 μM, propidium iodide 8 μM
# T5 construct: from human erythrocyte and E. electricus (EeAChE) (type VI-S); purchased Sigma-Aldrich (Germany) type VI-S; host or cells: Electrophorus electricus tissue
# Text: The fluorescent assay used to evaluate competitive propidium iodide displacement from the PAS of AChE is commonly used as primary screening method of AChE pro-aggregation activity inhibitors. Propidium iodide is a selective ligand for the PAS of AChE responsible for Aβ binding.
# EeAChE was used owing to its high degree of purification, high activity, and lower cost than human AChE. […] The fluorescence intensity of propidium iodide bound with AChE increases several times.
# To determine the degree of displacement (% displacement) of propidium iodide from the PAS of AChE, EeAChE (final concentration 7 μM) was incubated with the test compound at a concentration of 3 and 20 μM in 1 mM Tris-HCl buffer pH 8.0, 25 °C for 15 min. Then, propidium iodide solution (final concentration 8 μM) was added, the samples were incubated for 15 min and the fluorescence spectrum (530 nm (excitation) and 600 nm (emission)) was taken. Donepezil and tacrine were used as reference compounds. The blank contained propidium iodide of the same concentration in 1 mM Tris-HCl buffer pH 8.0. The measurements were carried out in triplicate on a microplate reader FLUOStar Optima (BMG Labtech Germany).
# The degree of displacement (% displacement) of propidium iodide from the peripheral anionic site of AChE was calculated by the following formula: %Displacement=100−(IFAChE+Propidium+inhibitor/IFAChE+Propidium)[…], where IFAChE + Propidium is the fluorescence intensity of the propidium associated with AChE in the absence of the test compound (taken as 100%), and IFAChE + Propidium + inhibitor is the fluorescence intensity of the propidium associated with AChE in the presence of the test compound.
# [6] = ABTS radical cation scavenging assay; conditions: 1 h incubation; for ABTS·+ scavenging activity, TEAC value: Trolox equivalent antioxidant capacity, ratio of slopes compound/Trolox
# Procedure: This assay is based on the production of a stable dark green ABTS cation-radical (ABTS^·+) by incubating ABTS ([2,2′-azino-bis(3-eth-ylbenzothiazoline-6-sulfonic acid diammonium salt)) with potassium persulfate. […] The ABTS radical-scavenging activity of the compounds was measured according to an established method[66] with some modifications, at 30 °С in the dark; incubation time was 1 hour. […] The results were expressed as TEAC values (Trolox equivalent antioxidant capacity) calculated by dividing the slope of ABTS^·+ concentration decrease versus the antioxidant concentration by the slope of the Trolox plot.
# Radical scavenging activity of the compounds was assessed using an ABTS radical decolorization assay[66] with some minor modifications. ABTS (2,2′-azino-bis-(3-ethylbenzothiazoline-6-sulfonic acid) diammonium salt) was purchased from TCI (Tokyo, Japan); potassium persulfate (di-potassium peroxodisulfate) and Trolox (6-hydroxy-2,5,7,8-tetramethychroman-2-carboxylic acid were obtained from Sigma-Aldrich Chemical Co. (St. Louis, MO, USA). Ethanol was HPLC grade. Aqueous solutions were prepared using deionized water.
# Trolox was used as the antioxidant standard. A 5 mM solution of Trolox was prepared in DMSO for use as stock. Fresh working solutions of known concentrations (1–100 μM) were prepared on the day of experiments and used for calibration and as positive controls for ABTS radical cation (ABTS^•+) scavenging activity. ABTS was dissolved in deionized water to a 7 mM concentration. […] Fresh working ABTS^•+ solution was prepared for each assay.
# The radical scavenging capacity of the compounds was analyzed by mixing 10 μl of compound with 240 μl of ABTS^•+ working solution. […] Ethanol blanks were run in each assay. Values were obtained from three replicates of each sample and three independent experiments.
# Antioxidant capacity as a Trolox equivalent (TEAC values) was determined as the ratio between the slopes obtained from the linear correlation for concentrations of test compounds and Trolox with absorbance of ABTS radical.
# [7] = Oxygen radical absorbance capacity assay (ORAC-FL); conditions: ORAC-FL, AAPH, fluorescein, 37 °C, pH 7.4; Trolox taken as 1
# Procedure: The ability of the conjugates to reduce the amount of peroxyl radicals as another characteristic of the antioxidant activity of the compounds was determined using the oxygen radical absorbance capacity by fluorescence (ORAC-FL) method using fluorescein (FL) as a fluorescent probe. The method is based on measuring the decrease in the intensity of fluorescence with time, which characterizes the degree of decay of the fluorescent probe under the influence of peroxyl radicals. In the presence of antioxidants, the degree of decay of the fluorescent probe decreases and, accordingly, the fluorescence time increases.
# The ability of compounds to scavenge peroxyl radicals was characterized by the value of the Trolox equivalent (TE, μmol of Trolox per μmol of the tested compound), which is equal to the ratio of the Trolox concentration to the tested compound concentration having the same fluorescence intensity. Peroxyl radical scavenging capacity of Trolox is taken as one (1)[67],[68].
# 2,2′-Azobis-(amidinopropane) dihydrochloride (AAPH), (±)-6-hydroxy-2,5,7,8-tetramethylchromane-2-carboxylic acid (Trolox) and fluorescein (FL) were purchased from Sigma-Aldrich. The reaction was carried out at 37 °C in 75 mM K,Na phosphate buffer (pH 7.4), and the final reaction mixture was 200 µL. The tested compounds and Trolox standard were dissolved in DMSO to 10 mM and further diluted in 75 mM K,Na phosphate buffer (pH 7.4). […] The blank was composed of 20 µL 75 mM K,Na phosphate buffer (pH 7.4) containing 2% (v/v) DMSO, 120 µL FL and 60 µL AAPH, and was added in each assay. Antioxidant (the test compound or Trolox, 20 µL) and FL (120 µL, final concentration: 70 nM) solutions were placed in a black 96-well microplate and were pre-incubated for 15 min at 37 °C. AAPH solution (60 µL, final concentration 12 mM) was then added rapidly using a multichannel pipette. The fluorescence was recorded every minute for 100 min. A Trolox standard curve was also obtained in each assay. All reactions were carried out in triplicate and at least three different assays were performed for each sample.
# Antioxidant curves (fluorescence vs. time) were first normalized to the curve of the blank (without antioxidant) corresponding to the same assay, and the area under the fluorescence decay curve (AUC) was calculated. The net AUC corresponding to a sample was calculated by subtracting the AUC corresponding to the blank. Regression equations were calculated by plotting the net AUC against the antioxidant concentration. The ORAC value was obtained by dividing the slope of the latter curve by the slope of the Trolox curve obtained in the same assay. […] Data were expressed as means ± SEM.
# [8] = system: isolated rat liver mitochondria; test: Inhibition of iron-induced lipid peroxidation (TBARs); conditions: read-out: IC50 of Fe3+-induced LP, LP induced by 0.5 mM Fe3+, mean ± SEM, n ≥ 3
# T5 sequence (O42275 24-633): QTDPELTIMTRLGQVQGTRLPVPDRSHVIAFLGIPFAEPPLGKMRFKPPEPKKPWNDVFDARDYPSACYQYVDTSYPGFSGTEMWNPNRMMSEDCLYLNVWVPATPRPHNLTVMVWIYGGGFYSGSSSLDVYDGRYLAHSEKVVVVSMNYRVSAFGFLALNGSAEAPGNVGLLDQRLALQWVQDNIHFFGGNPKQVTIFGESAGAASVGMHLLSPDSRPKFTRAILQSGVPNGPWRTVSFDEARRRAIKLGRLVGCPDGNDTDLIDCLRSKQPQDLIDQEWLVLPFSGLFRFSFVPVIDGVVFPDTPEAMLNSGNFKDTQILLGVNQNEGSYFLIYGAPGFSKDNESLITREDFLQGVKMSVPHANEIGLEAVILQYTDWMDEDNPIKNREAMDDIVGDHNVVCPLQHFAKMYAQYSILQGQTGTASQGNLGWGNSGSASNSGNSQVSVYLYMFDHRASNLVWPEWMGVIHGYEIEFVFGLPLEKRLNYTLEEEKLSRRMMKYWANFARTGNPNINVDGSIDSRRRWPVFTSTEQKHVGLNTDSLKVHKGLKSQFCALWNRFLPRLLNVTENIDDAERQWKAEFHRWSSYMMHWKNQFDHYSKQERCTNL
# T1 sequence (O42275 24-633): as above
# T3 sequence (P22303 32-617 isoform P22303-2 limits assumed): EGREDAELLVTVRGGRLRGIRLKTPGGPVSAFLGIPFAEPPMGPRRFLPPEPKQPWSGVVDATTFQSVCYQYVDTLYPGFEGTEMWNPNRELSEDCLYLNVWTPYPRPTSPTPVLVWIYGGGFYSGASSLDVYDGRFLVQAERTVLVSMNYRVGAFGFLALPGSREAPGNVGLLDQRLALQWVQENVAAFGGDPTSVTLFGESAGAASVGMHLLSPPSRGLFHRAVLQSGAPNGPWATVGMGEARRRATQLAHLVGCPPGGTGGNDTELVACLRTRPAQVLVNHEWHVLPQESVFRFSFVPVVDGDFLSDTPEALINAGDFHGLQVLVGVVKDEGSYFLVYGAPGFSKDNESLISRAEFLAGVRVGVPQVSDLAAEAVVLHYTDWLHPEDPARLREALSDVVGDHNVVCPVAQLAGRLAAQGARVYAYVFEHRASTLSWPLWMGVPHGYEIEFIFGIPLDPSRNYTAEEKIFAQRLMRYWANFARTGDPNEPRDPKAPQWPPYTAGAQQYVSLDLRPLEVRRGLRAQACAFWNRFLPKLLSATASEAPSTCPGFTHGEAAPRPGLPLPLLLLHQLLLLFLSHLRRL
# T2 sequence (P81908 whole entry): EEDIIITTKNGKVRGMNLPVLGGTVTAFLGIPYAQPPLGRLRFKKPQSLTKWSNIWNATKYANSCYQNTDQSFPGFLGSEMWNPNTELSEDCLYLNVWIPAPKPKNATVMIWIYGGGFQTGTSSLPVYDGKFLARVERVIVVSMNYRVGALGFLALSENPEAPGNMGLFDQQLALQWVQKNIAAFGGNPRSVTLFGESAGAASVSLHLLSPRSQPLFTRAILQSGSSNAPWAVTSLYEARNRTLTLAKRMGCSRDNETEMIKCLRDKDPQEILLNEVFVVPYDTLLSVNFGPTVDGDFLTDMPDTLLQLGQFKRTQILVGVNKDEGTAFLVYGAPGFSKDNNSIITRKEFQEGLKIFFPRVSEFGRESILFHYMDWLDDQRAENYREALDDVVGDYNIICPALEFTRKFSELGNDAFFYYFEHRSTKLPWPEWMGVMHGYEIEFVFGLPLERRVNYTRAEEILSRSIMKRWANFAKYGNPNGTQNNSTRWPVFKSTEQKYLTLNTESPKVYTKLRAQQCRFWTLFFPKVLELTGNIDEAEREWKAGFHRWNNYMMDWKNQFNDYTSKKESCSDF
Structure (SMILES),IC50 [1],IC50 [2],IC50 [3],% inhibition of CaE at 20 µM [4],"% Displacement of propidium iodide, 3 µM ([5]; compound 3 µM)","% Displacement of propidium iodide, 20 µM ([5]; compound 20 µM)","ABTS·+ scavenging activity, TEAC value [6]",ORAC TE value [7],IC50 [8],IC50 ([6]; concentration reducing ABTS·+ by 50%)
"Cc1ccc2c(c1)c1c(n2CCc2ccc(C)nc2)CCN(C)C1 [Dimebon, reference compound]",32.4 ± 3.5 µM,5.76 ± 0.51 µM,36.3 ± 3.59 µM,n.а.,2.8 ± 0.2%,6.0 ± 0.5%,0.004,1.07 ± 0.08 µmol Trolox/ µmol comp.,> 30 µM,
"Cc1c(C)c2c(c(C)c1O)CCC(C)(C(=O)O)O2 (stereo not drawn) [Trolox, 6-hydroxy-2,5,7,8-tetramethychroman-2-carboxylic acid, reference compound]",,,,,,,1.0,1.0 µmol Trolox/ µmol comp.,,20.4 ± 1.7 µM
